Laboratory results: patent publication US4351949A, “Bicyclic prostaglandin analogs and method of synthesis” (Iowa State University Research Foundation, Inc., priority 1981, dated 1982)
Converted amounts (≈) assume the structure as drawn. Where two headings read alike, the source gives them in different places.

Columns and labels:
[1] = system: arachidonic acid induced platelet aggregation; test: in vitro arachidonic acid induced blood platelet aggregation; type: cell-based
Protocol: The compounds of Examples 1 through 11 were tested against arachidonic acid induced platelet aggregation.

experimental thrombosis [2] = test: in vivo biolaser model of experimental thrombosis (rabbit ear chamber); settings: combined with anagrelide at a lower than threshold level
Excerpt: These compounds were studied in vivo in an animal model for experimental thrombosis. The use of this model is described in detail in the reprint, Use of the Biolaser in the Evaluation of Anti-Thrombotic Agents, J. S. Fleming et al. "Platelets and Thrombosis", eds. S. Sherry and A. Scriabrine, University Park Press, 1974, Baltimore, which is incorporated herein by reference.
In brief, a micro-injury is created by a laser beam focused through a microscope onto the endothelium surface of a small blood vessel in a surgically implanted ear chamber of a rabbit. The injury induces the rapid formation of a platelet thrombis which can be measured. […] Prostacyclin is active in the biolaser model when infused intraveneously. The results of these tests preliminarily indicate that there is a super additive interaction between anagrelide and the compounds of this invention. […] To date, no other compounds have undergone significant in vivo analysis in the rabbit ear test.

experimental thrombosis [3] = settings: cited from earlier work; for inhibition of laser-induced thrombosis by potent inhibitors of platelet aggregation: rabbit ear chamber, general statement on the model
[4] = concentration of agent necessary to reduce by 50% the in vitro blood platelet aggregation caused by addition of arachidonic acid, read-out: EC 50 vs Arachidonic Acid
[5] = Platelet, for comparison, vs arachidonic acid, read-out: EC 50 of comparison compounds

CCCCCC(O)C#CC1C2CCC(C2)C1C/C=C/CCCC(=O)O (stereo not drawn) [Example 1]
EC50 [1, 4]: 0.045 µg/mL (≈ 0.13 µM)

CCCCCC(O)C#CC1C2CCC(C2)C1C/C=C/CCCC(=O)OC (stereo not drawn) [Example 2]
EC50 [1, 4]: 0.07 µg/mL (≈ 0.194 µM)
reduction in thrombosis in combination with anagrelide (experimental thrombosis [2]): substantial reduction in thrombosis

CCCCCC(O)C#CC1C2CCC(C2)C1C/C=C/CCCCCCCC(=O)O (stereo not drawn) [Example 3]
EC50 [1, 4]: 1 µg/mL (≈ 2.48 µM)

CCCCCC(O)C#CC1C2CCC(C2)C1C/C=C/CCCCCCCC(=O)OC (stereo not drawn) [Example 4]
EC50 [1, 4]: 0.4 µg/mL (≈ 0.96 µM)

CCCCCC(O)C#CC1C2CCC(C2)C1C/C=C/C(=O)O (stereo not drawn) [Example 5]
EC50 [1, 4]: 4 µg/mL (≈ 13.1 µM)

CCCCCC(O)C#CC1C2CCC(C2)C1C/C=C/C(=O)OC (stereo not drawn) [Example 6]
EC50 [1, 4]: 8 µg/mL (≈ 25.1 µM)

CCCCCC(O)C#CC1C2C=CC(C2)C1C/C=C/CCCC(=O)OC (stereo not drawn) [Example 7]
EC50 [1, 4]: 3.6 µg/mL (≈ 10 µM)

CCCCCC(O)C#CC1C2CCC(CC2)C1C/C=C/CCCC(=O)OC (stereo not drawn) [Example 8]
EC50 [1, 4]: 5.8 µg/mL (≈ 15.5 µM)

CCCCCC(O)C#CC1C2CCC(C2)C1C/C=C/CCCCO (stereo not drawn) [Example 9]
EC50 [1, 4]: 3.6 µg/mL (≈ 10.8 µM)

CCCCC[C@H](O)/C=C/[C@H]1[C@H](O)CC(=O)[C@@H]1CCCCCCC(=O)O [PGE1, reference compound]
EC50 [1, 5]: 0.018 µg/mL (≈ 0.0508 µM)

O=C1CN2Cc3c(ccc(Cl)c3Cl)N=C2N1 [anagrelide]
inhibition of laser-induced thrombosis by potent inhibitors of platelet aggregation (experimental thrombosis [3]): significant inhibition

CCCCC[C@H](O)/C=C/[C@@H]1[C@H]2C/C(=C/CCCC(=O)O)O[C@H]2C[C@H]1O [prostacyclin]
EC50 [1, 5]: 0.004 µg/mL (≈ 0.0113 µM)
activity in the biolaser model (experimental thrombosis [3]; infused intravenously, rabbit): active
inhibition of laser-induced thrombosis by potent inhibitors of platelet aggregation (experimental thrombosis [3]): significant inhibition
